Here are results for five molecules from patent US6495594B2, “Biologically active analogs of discodermolide” (Harbor Branch Oceanographic Institution, Inc., priority 2000, dated 2002).

Assay [1] has as its system A549 human adenocarcinoma. Put plainly: In vitro proliferation of A549 cells (MTT). It is filed as cell-based. As to conditions: 72 hours exposure; for IC50: value in parentheses. As for the experimental part: (§1) Discodermolide and discodermolide analogs were analyzed as to their effects on proliferation of A549 human adenocarcinoma and P388 murine leukemia cell lines. P388 cells were obtained from Dr. R. Camalier, National Cancer Institute, Bethesda, MD, and A549 cells were obtained from American Type Culture Collection, Rockville, MD. All cell lines were maintained in tissue culture medium (TCM; Roswell Park Memorial Institute RPMI 1640 supplemented with 100 U/mL penicillin, […], 60 […], 18 mM HEPES, 0.05 mg/mL gentamicin (Life Technologies, Gaithersburg, MD) and 10% fetal bovine serum) and cultured in plastic tissue culture flasks at 37° C. in humidified air containing 5% CO2. Stock cultures of P388 cells were subcultured 1:20 in fresh TCM every 2 to 3 days. Stock cultures of A549 cells were subcultured 1:10 every 3 to 4 days. To assess the antiproliferative effects of agents against the cells, 200 μL cultures (96-well tissue culture plates, Nunc, Denmark) were established at 1 ×10^5 cells/mL in TCM or TCM containing the test agent at 0.03-5.0 μg/mL. After 48-h exposures, P388 cells were enumerated using 3-[4,5-dimethylthiazol-2-yl]-2,5-diphenyltetrazolium bromide (MTT) as described in the literature (M. C. Alley, et al., Cancer Res. 48:589, 1988). A549 cells were enumerated in the same manner after 72 hours exposure. The results were expressed as percent inhibition compared to the negative (no drug) control. Positive drug controls of varying dilutions of 5-fluorouracil and adriamycin (Sigma Chemical Co., St Louis, MO) were included to monitor drug sensitivity of the cell line.
(§2) To quantitate the effects on cell proliferation and resulting IC50 values, 75 μL of warm growth media containing 5 mg/mL MTT is added to each well, cultures returned to the incubator, and left undisturbed for 3 hours. To spectrophotometrically quantitate formation of reduced formazan, plates are centrifuged (500×g, 10 minutes), culture fluids removed by aspiration, and 200 μL of acidified isopropanol (2 mL concentrated HCl /liter isopropanol) added per well. The absorbance of the resulting solutions is measured in a plate reader (TECAN Spectra SLT; TECAN U.S., Research Triangle Park, N.C.) at 570 nm and a 650 nm reference filter. The absorbance of test wells is divided by the absorbance of drug-free wells, and the concentration of agent that results in 50% of the absorbance of untreated cultures (IC50) is determined by linear regression of logit-transformed data (D. J. Finney, Statistical Method in Biological Assay, third ed., pp. 316-348, Charles Griffin Co., London, 1978). A linear relationship between tumor cell number and formazan production has been routinely observed over the range of cell densities observed in these experiments. The two standard drug controls (indicated above) are included in each assay as a check to monitor the drug sensitivity of each of the cell lines and IC50 values are determined for each drug-cell combination.

The subject of assay [2] is P388 murine leukemia cell lines. The experiment in a line: In vitro proliferation of P388 cells (MTT). Type of assay: cell-based. As to conditions: 48-h exposure; for IC50: value in parentheses. As for the experimental part:
as §1, §2

In general, IC50 refers to the point on the concentration scale where inhibition reaches its midpoint. `CCCCC(C)C(OC(N)=O)C(C)C(O)C(C)CC(C)=CC(C)C(O)C(C)CCC(O)CC1OC(=O)C(C)C(O)C1C` (centres unmarked) [8,21,23-Hexahydrodiscodermolide (XII), 8,21,23-hexahydrodiscodermolide]: in assay [1], the “IC50 A549 cells” value stood at 0.04 µg/mL and the 50% inhibitory concentration (IC50) is 67.7 nM. In assay [2], the “IC50 P388 cells” value came to 0.02 µg/mL and the half-inhibitory concentration (IC50) stood at 33.8 nM.
As for `C=C/C=C\[C@H](C)[C@H](OC(N)=O)[C@@H](C)[C@H](O)[C@@H](C)C/C(C)=C\[C@H](C)[C@@H](O)[C@@H](C)/C=C\[C@@H](O)C[C@@H]1OC(=O)[C@@H](C)[C@@H](O)[C@H]1C` [2-Epidiscodermolide (IV), 2-epidiscodermolide], in assay [1], the “IC50 A549 cells” value turned out to be 0.04 µg/mL and the IC50 was found to be 67 nM. Further, in assay [2], the “IC50 P388 cells” value turned out to be 0.08 µg/mL and the IC50 was determined as 134 nM.
The matching figures for `C=CC=CC(C)C(OC(N)=O)C(C)C(O)C(C)CC(C)=CC(C)C(O)C(C)C=CC(O)CC1OC(=O)CC(O)C1C` (centres unmarked) [2-Desmethyldiscodermolide (II), 2-desmethyldiscodermolide]: 0.07 µg/mL, 120 nM, 0.1 µg/mL and 172 nM.
`C=CC=CC(C)C(O)C(C)C(O)C(C)CC(C)=CC(C)C(O)C(C)C=CC(O)CC1OC(=O)C(C)C(O)C1C` (centres unmarked) [19-Desaminocarbonyldiscodermolide (III), 19-desaminocarbonyldiscodermolide]: in assay [1], the “IC50 A549 cells” value worked out at 0.045 µg/mL and the IC50 was found to be 74 nM. In assay [2], the “IC50 P388 cells” value was found to be 0.07 µg/mL and the IC50 amounted to 128 nM.
For the molecule `CCCCC(C)C(OC(N)=O)C(C)C(O)C(C)CC(C)=CC(C)C(O)C(C)CCCCC1OC(=O)C(C)C(O)C1C` (centres unmarked) [7-deoxy-8,21,23-hexahydrodiscodermolide], in assay [1], the “IC50 A549 cells” value amounted to 0.22 µg/mL and the concentration for half-maximal inhibition (IC50) came out at 377 nM. For the same molecule, in assay [2], the “IC50 P388 cells” value is 0.18 µg/mL and the IC50 was determined as 309 nM.
